Data from patent US9499821B2, “Preventing or treating viral infection using an inhibitor of the LSD1 protein, a MAO inhibitor or an inhibitor of LSD1 and a MAO inhibitor” (The United States of America, as represented by the …, priority 2008, dated 2016).
“Also recorded” adds a separate entry of the source. Read-outs that look alike come from different tables or passages of the source.

Key:
[1] = system: herpes simplex virus (HSV); experiment: HSV infection of cells treated with MAOIs; qRT-PCR of HSV IE genes and IE proteins; assay type: cell-based, HSV-1 strain 17; conditions: HSV-infected cells, selected concentrations of drug; relative to DMSO treated cells
[2] = Cellular protein controls and cellular toxicity in MAOI-treated infected cells; assay type: cell-based
Excerpt: (§1) For treatment with MAOIs, cells were pretreated with the indicated concentration of drug for 4-5 hrs prior to infection and maintained throughout infection. Pargyline (p-8013) and Tranylcypromine (p-8511) were obtained from Sigma (St. Louis, Mo.).

[3] = system: viral IE promoters (histone H3, H3K9 and H3K4 methylation); experiment: Chromatin immunoprecipitation of viral IE promoters in MAOI-treated infected cells; assay type: cell-based; conditions: for nucleosomes bearing repressive marks on the viral IE promoters (histone H3 and H3K9 methylation): in the presence of drug
Protocol: Chromatin immunoprecipitations (ChIP) from extracts of control, HCF-1 depleted, and LSD1 depleted cells were done essentially as described (Narayanan et al., Proc. Natl. Acad. Sci. USA, 2007, 104, 10835-40). Recovered DNA was subjected to semi-quantitative PCR with dilutions of input DNA to insure linearity using PCR Supermix (Invitrogen, Carlsbad, Calif.) with the following conditions: 95° C. for 2 min followed by 20 cycles of 95° C. for 30 sec; 59° C. for 30 sec; 72° C. for 30 sec. The signal intensities of individual bands, resolved in ethidium bromide agarose gels, were calculated as a percentage of the intensity of the input extract after subtraction of the appropriate background antibody controls. Signal intensities of resolved bands were quantitated using a Kodak 4000MM Image Station.
Samples also were analyzed, in triplicate, by qPCR using ABI Sybr Green PCR Master Mix. For qPCR, samples were run on a ABI PRISM 7900HT with the following conditions: 95° C. for 10 min followed by 40 cycles of 95° C. for 15 sec; 57° C. for 15 sec; 72° C. for 30 sec. Results were analyzed using ABI SDS 2.3 software.
as §1

[4] = system: varicella zoster virus (VZV); experiment: VZV infection of cells treated with MAOIs; qRT-PCR of IE62 mRNA and IE proteins; assay type: cell-based; conditions: VZV-infected cells, 4 hrs, increasing amounts of drug; relative to DMSO treated cells
Protocol: The methods of Example 1 were followed.
(§2) Cell infections: For HSV, cells were infected with 0.1 plaque forming units (PFU) of HSV per cell for 24 hrs in the presence of 2 mM Tranylcypromine (TCP) or control DMSO. The resulting viral yields were determined by titer of infected cell lysates on Vero cell monolayers. VZV infections were performed as in Example 3.

[5] = system: HSV IE mRNA (ICP27, ICP4); experiment: Nested RT-PCR of viral IE mRNAs in explanted latently infected ganglia; assay type: cell-based, Balb/c mice; conditions: paired ganglia explanted 12 hrs; 100 μM acyclovir or 2 mM TCP
Protocol: For the detection of viral IE and cellular mRNAs post explant, 8 ganglia from HSV latently infected or mock infected Balb/c mice were explanted in the presence of DMSO, 100 μM acyclovir, or 2 mM TCP for the indicated times. cDNAs were prepared from total RNA and amplified by qPCR (cellular Sp1 and TBP controls) or nested PCR (viral IE). Primer sets for the nested RT-PCR were as follows:
cDNA samples were normalized to one another according to the level of cellular control Sp1 mRNA. To insure linearity and sensitivity of nested PCR reactions, samples were amplified in parallel with dilutions of cDNA prepared from 3T3 cells infected with HSV at 6.4×10^−5 pfu/cell for 4 hrs. PCR products were resolved in agarose gels and quantitated using Kodak Image Station 4000MM Digital Imaging System.

HSV ICP8 = experiment: ICP8 immunofluorescence of explanted latently infected trigeminal ganglia; assay type: cell-based, Balb/c mice; conditions: for ganglia with ICP8 (+) neurons: explant 48 hrs in the presence of drug
Protocol: (§3) Latently infected mice and trigeminal ganglia: Balb/c mice were infected with 5×10^5 PFU HSV-1 (strain 17) per eye after corneal scarification. Latently infected mice were sacrificed 30 days post clearance of the primary infection and trigeminal ganglia were rapidly explanted into culture in the presence or absence of TCP or control (DMSO or acyclovir). Post explant incubation as indicated, the ganglia were homogenized and briefly sonicated. The reactivated viral yield of each ganglia was determined by titering the clarified supernatant on Vero cells.
Immunofluorescence statistical analysis: Trigeminal ganglia (16 DMSO/Control, 15 acyclovir, and 15 TCP) were fixed at 48 hours post explants. Serial sections representing the entire ganglia were stained and scored by confocal microscopy.
Therefore, latently infected ganglia were explanted in the presence of DMSO (control vector), acyclovir (to prevent viral DNA replication and spread), or TCP for 48 hrs. Ganglia were fixed and sections were probed with antibodies to HSV ICP8, the viral-encoded single stranded binding protein.

Adenovirus Type 5 = conditions: HeLa cells, 2 mM, 5 hours prior to infection, 2 or 4 hours infection
Protocol: Viral infection and treatment with TCP: HeLa cells (2×10^6) were treated with control DMSO (D) or 2 mM Tranylcypromine (T) for 5 hours prior to infection with various amounts of Adenovirus Type 5 (1.2×10^8, 2.3×10^8, and 4.5×10^8 NAS IU) for 2 or 4 hours. Equal amounts of infected cell lysates were resolved by SDS-PAGE and Western blotted with anti-E1A, anti-LSD1, and anti-β tubulin antibodies. HEK293 and uninfected HeLa cell lysates represented E1A positive and negative controls.
HeLa cells (2×10^6) were treated with control DMSO (D) or various concentrations of Tranylcypromine (TCP) for 5 hours prior to infection with 2.3×10^9 NAS IU of adenovirus Type 5 for 2 hours. Equal amounts of infected cell lysates were resolved by SDS-PAGE and Western blotted with anti-E1A, anti-β Tubulin, and anti-TBP antibodies.

HSV = conditions: 0.1 PFU HSV per cell, 24 hrs, 2 mM TCP vs DMSO
Protocol: as §2

HSV-1 (strain 17) = experiment: HSV reactivation: viral yield from explanted trigeminal ganglia of latently infected mice; assay type: cell-based, Balb/c mice
Protocol: as §3
Statistical analyses: Statistical comparisons were made using Wilcoxon signed rank test (paired ganglia) with a statistical significance of <0.05; Kruskal-Wallis test with post hoc Dunn's multiple comparison test (drug titration and reversal) with a statistical significance of <0.025; Mann-Whitney U test with Dunn's post hoc adjustment (non-paired ganglia time course) with a statistical significance of <0.025; or Fischer's Exact Test with a statistical significance of <0.05. Analyses were made using Prism (V5.0a) and are expressed as the mean+/−s.e.m.
Non-paired ganglia time course statistic analysis: Comparisons were made between control (DMSO) and TCP treated ganglia on day 2 and day 4 post explant. Each comparison utilized a one-sided Mann-Whitney U test followed by application of the Dunn's post hoc adjustment to the p-values. Significant differences were found between DMSO and TCP on day 2 (p=0.0043) and on day 4 (p=0.0011). Both of these differences are still significant after applying the Dunn's adjustment as both are less than the alpha level (α=0.025). The Mann-Whitney tests used an exact p-value for small sample sizes. n=6 for each sample set.
Paired ganglia statistical analysis: Each data point was the result of a single ganglia divided and treated in the presence and absence of TCP. Therefore, a Wilcoxon signed rank test was used to assess differences between each treated and untreated sample. The significant difference was p=0.0002. This test used an exact p-value for small sample sizes with an α level of 0.05. n=16 for each sample set.
TCP titration statistical analysis: To determine at what concentration TCP that would produce a significant reduction in viral load, a Kruskal-Wallis (K-W) test with Dunn's post hoc comparison was used. The K-W test was appropriate due to the comparison of five samples of data that are not normally distributed. Significant differences were found between the five groups (p=0.0007, K-W=19.39). […] No significant difference was found between 1.0 and 1.5 or 1.5 and 2.0 mM data sets. n=5 for control, 0.5, 1.0, and 2.0 mM; n=6 for […].
TCP reversal statistical analysis: Viral yields from ganglia treated without TCP for 2 days, treated with TCP for 2 days, or treated with TCP for 2 days followed by incubation in the absence of drug for 3 days were compared using the K-W test followed by Dunn's post hoc comparisons. The K-W test was appropriate due to the comparison of three samples of data that are not nominally distributed. Significant differences were found between the groups ([…], K-W=10.3).

With `C#CCN(C)Cc1ccccc1` [Pargyline] the “viral mRNA (HSV IE genes) and IE proteins” value [1] was “dose dependent decrease”, the cellular toxicity [2] was “no significant cellular toxicity” and the “nucleosomes bearing repressive marks on the viral IE promoters (histone H3 and H3K9 methylation)” value [3] was “accumulated”. For the same molecule, the “viral mRNA (IE62) and IE proteins” value [4] was “dose dependent decrease”.
For `Nc1nc2c(ncn2COCCO)c(=O)[nH]1` [acyclovir], the “ICP27 mRNA level” value [5] was “readily detected”, the “odds of viral reactivation, DMSO treated vs acyclovir treated samples (Odds Ratio)” value (HSV ICP8; 48 hours post explant) was 1.4444 times higher and the “ganglia with ICP8 (+) neurons” value (HSV ICP8) was 9 of 12.
In the case of `N[C@@H]1C[C@H]1c1ccccc1` (racemic) [TCP, Tranylcypromine], the “expression of the adenovirus IE protein E1A” value (Adenovirus Type 5) was “inhibits the expression”, the “reduction of viral yields” value (HSV) was roughly 1000 fold and the “reduction in viral load vs control (DMSO)” value (shortened to “reduction in viral load”) (HSV-1 (strain 17); 0.5 mM TCP, 2 days explant, Dunn's post hoc) was “did not”. For the same molecule, the “reduction in viral load” value (HSV-1 (strain 17); 1.0 mM TCP, 2 days explant, Dunn's post hoc p<0.05) was “showed significant differences”, the “reduction in viral load” value (HSV-1 (strain 17); 1.5 mM TCP, 2 days explant, Dunn's post hoc p<0.05) was “showed significant differences” and the “viral reactivation following drug removal (TCP-R)” value (HSV-1 (strain 17); 2 mM TCP 2 days, then 3 days in the absence of drug) was “high level of viral reactivation; also recorded: HSV reactivation”. The “reduction in viral load” value (HSV-1 (strain 17); 2.0 mM TCP, 2 days explant, Dunn's post hoc p<0.05) was “showed significant differences”, the “viral reactivation (viral yield), paired ganglia” value (HSV-1 (strain 17); each half of a ganglia explanted with or without 2 mM TCP, 2 days, p=0.0002, n=16) was “inhibition of viral reactivation; also recorded: decrease in viral yield” and the “reactivation of HSV-1 (viral yield), non-paired ganglia time course” value (HSV-1 (strain 17); explant 2 or 4 days, 2 mM TCP vs DMSO, p=0.0043 (day 2), 0.0011 (day 4), n=6) was “significantly reduced; also recorded: decrease in viral yield”. The “HSV reactivation at various (lower) levels of TCP” value (HSV-1 (strain 17); titration of TCP, 2 days explant) was “lower levels also were effective; also recorded: inhibition of HSV reactivation”, the “ICP27 mRNA level” value [5] was “not significantly above that of background controls” and the “viral mRNA (HSV IE genes) and IE proteins” value [1] was “dose dependent decrease”. The cellular toxicity ([2]; VZV and HSV infected cells treated with inhibitor) was “no significant cellular toxicity”, the “odds of viral reactivation, DMSO treated vs TCP treated samples (Odds Ratio)” value (HSV ICP8; 48 hours post explant) was 60.6667 times higher and the “odds of viral reactivation, acyclovir treated vs TCP treated samples (Odds Ratio)” value (HSV ICP8; 48 hours post explant) was 42.0000 times higher. The “ganglia with ICP8 (+) neurons” value (HSV ICP8) was 1 of 15, the “histone H3 and H3K9 trimethylation on viral IE promoters” value ([3]; in the presence of TCP) was “substantial increase” and the “level of H3K4 trimethylation on viral IE promoters” value ([3]; in the presence of TCP) was “did not significantly change”. For the same molecule, the “nucleosomes bearing repressive marks on the viral IE promoters (histone H3 and H3K9 methylation)” value [3] was “accumulated” and the “viral mRNA (IE62) and IE proteins” value [4] was “dose dependent decrease”.
